Measurements published in US20250000858A1, “FGFR TYROSINE KINASE INHIBITORS FOR THE TREATMENT OF ADVANCED SOLID TUMORS” (JANSSEN PHARMACEUTICA NV, priority 2021, published 2025).

System: advanced solid tumors with FGFR mutations or fusions
Assay: Phase 2 RAGNAR study (NCT04083976): tumor response per RECIST v1.1 or RANO by IRC and investigator (ORR, DOR, DCR, CBR, PFS, OS, best overall response)
Type: in vivo, human
Conditions: for DOR of longest ongoing PR: + = censored, IA3; for Clinical Benefit Rate n(%) (95% CI) / Confirmed Objective Response Rate n(%) (95% CI) / Disease Control Rate n(%) (95% CI) / Median DOR (95% CI) / Median PFS (95% CI) / Median OS (95% CI): BPC; for Clinical Benefit Rate n(%) (95% CI) / Confirmed Objective Response Rate n(%) (95% CI) / Disease Control Rate n(%) (95% CI) / Median DOR (95% CI) / Median PFS (95% CI): IRC
Source text: Subjects ≥12 years of age with target FGFR mutations or any FGFR gene fusions were enrolled into the Broad Panel Cohort. […] A subgroup of subjects in the Broad Panel Cohort with a select panel of pre-specified FGFR markers were identified as the Core Panel Cohort (for analysis only). While the Broad Panel Cohort consists of target FGFR mutations and any fusions, the Core Panel Cohort consists of a select subset of FGFR mutations or fusions. Subjects with any other FGFR mutations that are not captured in the Broad Panel Cohort are included in the study as the Exploratory Cohort. A separate Cholangiocarcinoma Expansion Cohort enrolled subjects with target FGFR mutations or any FGFR gene fusion once the Broad Panel Cohort reached the cap of approximately 30 subjects for cholangiocarcinoma. […] Adolescent subjects enrolled in the Broad Panel Cohort (≥12 to <18 years) are considered part of the Broad Panel Cohort and the Pediatric Cohort.
(§1) Each dose was taken approximately at the same time each day, with or without food.
The Treated Population will consist of all subjects who receive at least 1 dose of study drug. The Treated Population is the primary population for efficacy and safety analyses. […] Adequate disease assessment is defined as having enough evidence to indicate that progression has or has not occurred.
Statistical Methods: For the Broad Panel Cohort, the primary endpoint was overall response rate (ORR) based on RECIST v1.1. or RANO as assessed by the IRC and was calculated with a 95% 2-sided exact confidence interval (CI). The primary endpoint was analyzed using data from the Treated Population (defined as all subjects who receive at least 1 dose of study drug) in the Broad Panel Cohort and the Core Panel Cohort. An error-spending function approach was used to split the significance level for the Broad Panel Cohort and the Core Panel Cohort.
as §1

[1] = CUP (Carcinoma of Unknown Primary), N=8
[2] = EDMTL (Endometrial Cancer), N=6
[3] = HNSCC (Squamous Cell Head and Neck Cancers), N=5
[4] = Others (tumor histologies with 1 subject treated), N=14
[5] = PANCR (Pancreatic Cancer), N=13
[6] = SALIV (Salivary Gland Cancer), N=5
[7] = nonsqNSCLC (Non-squamous NSCLC), N=7
[8] = BRST (breast cancer), N=7, efficacy analysis set, investigator assessment

Compound: COc1cc(OC)cc(N(CCNC(C)C)c2ccc3ncc(-c4cnn(C)c4)nc3c2)c1 [erdafitinib, N-(3,5-dimethoxy-phenyl)-N′-(1-methylethyl)-N-[3-(1-methyl-1H-pyrazol-4-yl)quinoxalin-6-yl]ethane-1,2-diamine]
- DOR of longest ongoing PR (1 patient with endometrial cancer): ≥ 13.7 months
- DOR of longest ongoing PR (1 patient with pancreatic cancer): ≥ 13.8 months
- clinical benefit rate (CBR: CR+PR+SD>4 months) (69/124, efficacy analysis set): 55.6%
- Objective Response Rate (BCC, N=1, efficacy analysis set, investigator assessment): 0 (NE, NE) %
- Clinical Benefit Rate n(%) (95% CI) (BRST (Breast Cancer), N=14): 6 (42.9%)
- Confirmed Objective Response Rate n(%) (95% CI) (BRST (Breast Cancer), N=14): 5 (35.7%)
- Disease Control Rate n(%) (95% CI) (BRST (Breast Cancer), N=14): 9 (64.3%)
- Median DOR (95% CI) (BRST (Breast Cancer), N=14): NE (NE, NE)
- Median PFS (95% CI) (BRST (Breast Cancer), N=14): 4.17 (1.22, NE) months
- Confirmed Objective Response Rate n(%) (95% CI) (CCA (Cholangiocarcinoma), N=31): 16 (51.6%)
- Disease Control Rate n(%) (95% CI) (CCA (Cholangiocarcinoma), N=31): 30 (96.8%)
- Median PFS (95% CI) (CCA (Cholangiocarcinoma), N=31): 8.25 (6.41, 9.72) months
- Clinical Benefit Rate n(%) (95% CI) (CRC (Colorectal Cancer), N=6): 1 (16.7%)
- Confirmed Objective Response Rate n(%) (95% CI) (CRC (Colorectal Cancer), N=6): 0 (NE, NE) %
- Disease Control Rate n(%) (95% CI) (CRC (Colorectal Cancer), N=6): 2 (33.3%)
- Median PFS (95% CI) (CRC (Colorectal Cancer), N=6): 1.15 (0.43, NE) months
- Clinical Benefit Rate n(%) (95% CI) (CRVX (Cervical Cancer), N=4): 1 (25.0%)
- Confirmed Objective Response Rate n(%) (95% CI) (CRVX (Cervical Cancer), N=4): 0 (NE, NE) %
- Disease Control Rate n(%) (95% CI) (CRVX (Cervical Cancer), N=4): 3 (75.0%)
- Median PFS (95% CI) (CRVX (Cervical Cancer), N=4): 3.52 (1.38, NE) months
- Clinical Benefit Rate n(%) (95% CI) [1]: 5 (62.5%)
- Confirmed Objective Response Rate n(%) (95% CI) [1]: 2 (25.0%)
- Disease Control Rate n(%) (95% CI) [1]: 7 (87.5%)
- Median DOR (95% CI) [1]: NE (2.66, NE)
- Median PFS (95% CI) [1]: 4.78 (2.04, NE) months
- Clinical Benefit Rate n(%) (95% CI) [2]: 3 (50.0%)
- Confirmed Objective Response Rate n(%) (95% CI) [2]: 3 (50.0%)
- Disease Control Rate n(%) (95% CI) [2]: 4 (66.7%)
- Median PFS (95% CI) [2]: 4.11 (1.31, NE) months
- Clinical Benefit Rate n(%) (95% CI) (ESOPH (Esophageal Cancer), N=6): 1 (16.7%)
- Confirmed Objective Response Rate n(%) (95% CI) (ESOPH (Esophageal Cancer), N=6): 1 (16.7%)
- Disease Control Rate n(%) (95% CI) (ESOPH (Esophageal Cancer), N=6): 2 (33.3%)
- Median PFS (95% CI) (ESOPH (Esophageal Cancer), N=6): 1.31 (0.30, NE) months
- Clinical Benefit Rate n(%) (95% CI) (GSTRC (Gastric Cancer), N=5): 0 (NE, NE) %
- Confirmed Objective Response Rate n(%) (95% CI) (GSTRC (Gastric Cancer), N=5): 0 (NE, NE) %
- Disease Control Rate n(%) (95% CI) (GSTRC (Gastric Cancer), N=5): 3 (60.0%)
- Median PFS (95% CI) (GSTRC (Gastric Cancer), N=5): 2.30 (1.22, NE) months
- Clinical Benefit Rate n(%) (95% CI) (HGG (High-grade Glioma), N=29): 10 (34.5%)
- Confirmed Objective Response Rate n(%) (95% CI) (HGG (High-grade Glioma), N=29): 3 (10.3%)
- Disease Control Rate n(%) (95% CI) (HGG (High-grade Glioma), N=29): 16 (55.2%)
- Median DOR (95% CI) (HGG (High-grade Glioma), N=29): NE (NE, NE)
- Median PFS (95% CI) (HGG (High-grade Glioma), N=29): 3.86 (2.96, 5.19) months
- Clinical Benefit Rate n(%) (95% CI) [3]: 2 (40.0%)
- Confirmed Objective Response Rate n(%) (95% CI) [3]: 2 (40.0%)
- Disease Control Rate n(%) (95% CI) [3]: 4 (80.0%)
- Median PFS (95% CI) [3]: 4.04 (0.39, NE) months
- Clinical Benefit Rate n(%) (95% CI) (LGG (Low-grade Glioma), N=6): 3 (50.0%)
- Confirmed Objective Response Rate n(%) (95% CI) (LGG (Low-grade Glioma), N=6): 2 (33.3%)
- Disease Control Rate n(%) (95% CI) (LGG (Low-grade Glioma), N=6): 4 (66.7%)
- Median DOR (95% CI) (LGG (Low-grade Glioma), N=6): NE (NE, NE)
- Median PFS (95% CI) (LGG (Low-grade Glioma), N=6): NE (2.76, NE)
- Clinical Benefit Rate n(%) (95% CI) (OVAR (Ovarian Cancer), N=4): 1 (25.0%)
- Confirmed Objective Response Rate n(%) (95% CI) (OVAR (Ovarian Cancer), N=4): 1 (25.0%)
- Disease Control Rate n(%) (95% CI) (OVAR (Ovarian Cancer), N=4): 2 (50.0%)
- Median PFS (95% CI) (OVAR (Ovarian Cancer), N=4): 6.70 (NE, NE) months
- Clinical Benefit Rate n(%) (95% CI) (Other, N=31): 18 (58.1%)
- Confirmed Objective Response Rate n(%) (95% CI) (Other, N=31): 8 (25.8%)
- Median PFS (95% CI) (Other, N=31): 5.52 (2.76, 8.61) months
- Clinical Benefit Rate n(%) (95% CI) [4]: 7 (50.0%)
- Confirmed Objective Response Rate n(%) (95% CI) [4]: 2 (14.3%)
- Disease Control Rate n(%) (95% CI) [4]: 11 (78.6%)
- Median DOR (95% CI) [4]: NE (NE, NE)
- Median PFS (95% CI) [4]: 4.39 (1.41, NE) months
- Clinical Benefit Rate n(%) (95% CI) [5]: 6 (46.2%)
- Confirmed Objective Response Rate n(%) (95% CI) [5]: 5 (38.5%)
- Disease Control Rate n(%) (95% CI) [5]: 12 (92.3%)
- Median PFS (95% CI) [5]: 4.76 (3.02, NE) months
- Clinical Benefit Rate n(%) (95% CI) (PCA (Prostate Cancer), N=2): 0 (NE, NE) %
- Confirmed Objective Response Rate n(%) (95% CI) (PCA (Prostate Cancer), N=2): 0 (NE, NE) %
- Disease Control Rate n(%) (95% CI) (PCA (Prostate Cancer), N=2): 0 (NE, NE) %
- Median PFS (95% CI) (PCA (Prostate Cancer), N=2): 1.26 (1.18, NE) months
- Clinical Benefit Rate n(%) (95% CI) [6]: 5 (100.0%)
- Confirmed Objective Response Rate n(%) (95% CI) [6]: 4 (80.0%)
- Disease Control Rate n(%) (95% CI) [6]: 5 (100.0%)
- Median PFS (95% CI) [6]: NE (8.34, NE)
- Clinical Benefit Rate n(%) (95% CI) (STS (Soft Tissue Sarcoma), N=2): 1 (50.0%)
- Confirmed Objective Response Rate n(%) (95% CI) (STS (Soft Tissue Sarcoma), N=2): 0 (NE, NE) %
- Disease Control Rate n(%) (95% CI) (STS (Soft Tissue Sarcoma), N=2): 1 (50.0%)
- Median PFS (95% CI) (STS (Soft Tissue Sarcoma), N=2): NE (3.94, NE)
- Clinical Benefit Rate n(%) (95% CI) (Total, N=178): 82 (46.1%)
- Confirmed Objective Response Rate n(%) (95% CI) (Total, N=178): 52 (29.2%)
- Disease Control Rate n(%) (95% CI) (Total, N=178): 129 (72.5%)
- Median PFS (95% CI) (Total, N=178): 4.21 (4.04, 5.52) months
- Clinical Benefit Rate n(%) (95% CI) [7]: 3 (42.9%)
- Confirmed Objective Response Rate n(%) (95% CI) [7]: 3 (42.9%)
- Disease Control Rate n(%) (95% CI) [7]: 4 (57.1%)
- Median PFS (95% CI) [7]: 4.07 (1.38, NE) months
- Clinical Benefit Rate n(%) (95% CI) (sqNSCLC (Squamous NSCLC), N=11): 3 (27.3%)
- Confirmed Objective Response Rate n(%) (95% CI) (sqNSCLC (Squamous NSCLC), N=11): 3 (27.3%)
- Disease Control Rate n(%) (95% CI) (sqNSCLC (Squamous NSCLC), N=11): 10 (90.9%)
- Median PFS (95% CI) (sqNSCLC (Squamous NSCLC), N=11): 5.03 (2.37, NE) months
- Median OS (95% CI) (BRST (Breast Cancer), N=14): 8.87 (4.86, NE) months
- Median OS (95% CI) (CCA (Cholangiocarcinoma), N=31): 14.46 (12.09, NE) months
- Median OS (95% CI) (CRC (Colorectal Cancer), N=6): 5.68 (1.22, NE) months
- Median OS (95% CI) (CRVX (Cervical Cancer), N=4): 4.40 (3.48, NE) months
- Median OS (95% CI) [1]: 11.99 (2.99, NE) months
- Median OS (95% CI) [2]: NE (1.74, NE)
- Median OS (95% CI) (ESOPH (Esophageal Cancer), N=6): 3.42 (1.28, NE) months
- Median OS (95% CI) (GSTRC (Gastric Cancer), N=5): 3.29 (2.89, NE) months
- Median OS (95% CI) (HGG (High-grade Glioma), N=29): 6.49 (3.75, 14.39) months
- Median OS (95% CI) [3]: NE (0.39, NE)
- Median OS (95% CI) (LGG (Low-grade Glioma), N=6): 10.94 (5.72, NE) months
- Median OS (95% CI) (OVAR (Ovarian Cancer), N=4): NE (NE, NE)
- Median OS (95% CI) (Other, N=31): NE (3.94, NE)
- Median OS (95% CI) [4]: NE (3.29, NE)
- Median OS (95% CI) [5]: 12.12 (7.26, NE) months
- Median OS (95% CI) (PCA (Prostate Cancer), N=2): NE (3.48, NE)
- Median OS (95% CI) [6]: NE (NE, NE)
- Median OS (95% CI) (STS (Soft Tissue Sarcoma), N=2): NE (3.94, NE)
- Median OS (95% CI) (Total, N=178): 10.94 (7.89, 14.26) months
- Median OS (95% CI) [7]: NE (2.40, NE)
- Median OS (95% CI) (sqNSCLC (Squamous NSCLC), N=11): 6.83 (2.37, NE) months
- Median DOR [8]: 6.08 (NE, NE) months
- Objective Response Rate [8]: 3 (42.9%) (9.9%, 81.6%)
